Series [1] has as its system central nervous system. The following applies: prior art compound; cited from earlier work.
Series [2] relates to central nervous system. Put plainly: Stereotypic behavior reactions in rats. Conditions: Rattus norvegicus, 1 h, dose causing stereotypic behavior reactions in 50% of rats one hour after administration, Litchfield and Wilkoxson method, read-out: ED50 (stereotypy). The class given is in vivo, white rat males. How it is done: (§1) Psychostimulating activity of the compounds according to the present invention has been tested in experiments with mice and rats.
(§2) The experiments are performed with white male mice with a weight of 18-20 g and with white rat males with a weight of 120 to 140 g with the account of parameters characterising the influence of the compounds according to the present invention on the central nervous system as well as toxicity. Following this objective, there have been studied:
(2) capability of the compounds of inducing sterotypic behavior reactions;
(§3) To quantitatively evaluate the central stimulant activity of the compounds in the tests on mice the values of ED200 (locomotion) are determined, i.e. doses in which the compounds cause a two-fold potentiation of locomotory activity of the animals; in the tests performed with rats there are determined values of ED50 (stereotypy), i.e. doses in which the compounds, one hour after their administration, cause, in 50% of the test rats, stereotypic behavior reactions (ED50 doses are calculated by the Litchfield and Wilkoxsons method).
(§4) The compounds according to the present invention are sparingly soluble in water. They were administered to the animals in the form of a suspension prepared with the use of a 1% solution of carboxymethylcellulose with the addition of Tween-80® as an emulsifying agent. Since molecular weights of the test compounds differ from each other, their doses are calculated in mcM/kg.
(§5) In a special series of experiments there has been made a quantitative comparison of the central stimulant effect of the compounds according to the present invention as determined by tests of locomotory activity with mice and stereotypy with rats.

Series [3] has as its system central nervous system. Put plainly: Locomotory activity of mice (registered with instrument "Animex"). The class given is in vivo, white male mice. Conditions: for ED200: Mus musculus, dose causing two-fold potentiation of locomotory activity, read-out: ED200 (locomotion). How it is done: as §1, §2
(1) effect of the compounds on the locomotory activity of the animals (locomotory activity is registered using the instrument "Animex");
as §3, §4, §5

The subject of the next series is mice. The following applies: statement on known psychostimulant compounds; cited from earlier work.
The next series in a line: Solubility. In kind it is physicochemical.

As for `CC(Cc1ccccc1)[n+]1cc([N-]C(=O)Nc2ccccc2)on1` (racemic) [dl-N-phenylcarbamoyl-3-(α-methyl-β-phenylethyl) sydnonimine, reference compound], the “psychostimulant activity (known compound)” value in the series with central nervous system [1] is given as “possesses a psychostimulant activity”. In addition, the 50% effective dose (ED50) in the series with central nervous system [2] amounted to 107 µmol/kg. In addition, the ED200 with central nervous system [3] was found to be 72.6 µmol/kg.

For the molecule `Cc1cccc(NC(=O)[N-]c2c[n+](C(C)Cc3ccccc3)no2)c1` (racemic) [X is NH--C6 H4 --CH3 --meta], the median effective dose (ED50) with central nervous system [2] turned out to be 39.9 µmol/kg. Further, the ED200 in the series on central nervous system [3] is 32.3 µmol/kg.

On to `C[C@H](N)Cc1ccccc1` [dextramphetamine], for which the “phenomenon of "group toxicity" (known psychostimulant compounds)” value in the series on mice is recorded as “characteristic”.

Regarding `CC(N)Cc1ccccc1` (centres unmarked) [amphetamine], in the series on mice, the “phenomenon of "group toxicity" (known psychostimulant compounds)” value is “characteristic”.

With `CC(Cc1ccccc1)[n+]1cc([N-]C(=O)Nc2ccc(Cl)cc2)on1` (racemic) [Example 4, dl-N-para-chlorophenyl carbamoyl-3-(α-methyl-β-phenylethyl) sydnonimine], the 50% effective dose (ED50) in the series with central nervous system [2] is 20 µmol/kg. The ED200 in the series on central nervous system [3] amounted to 18.2 µmol/kg.

Consider `C[C@H](Cc1ccccc1)[n+]1cc([N-]C(=O)Nc2ccccc2)on1` [Example 3, l-3-(α-methyl-β-phenylethyl)-N-phenylcarbamoylsydnonimine], for which the “duration for which maximum locomotory activity is maintained” value in the series with central nervous system [3] (dose of 40 mcM/kg) is 1 to 1.5 h. Also, in the series “Solubility” (acetone), the solubility in acetone result is “soluble”. Moreover, in “Solubility” (chloroform), the solubility in chloroform entry is listed as “soluble”. The solubility in fats result in “Solubility” (fats) is listed as “soluble”. Moreover, the solubility in water result in the series “Solubility” (water) is listed as “substantially insoluble in water”.
